This is an account of results in the supplement of paper PMC11208160.

The data set can be described thus: recombinant barcode read abundance after kanamycin selection (control-corrected) (log10(CPM+1)); higher = more efficient recombination; sequences stand for … in AGTGCAGAGAAAATCGGCCAGTTTTCTCTGCCTGCAGTCCGCATGCCGT…AGATTTATGCAGCGGACTGCCTTTCTCCCAAAGTGATAAACCGGACAGTATCATGGACCGGTTTTCCCGGTAATCCGTATTTGCAAGGTTGGTTTCACT; site = the 11-nt target. The protocol:
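Pooled E. coli target-specificity screen for the IS621 bridge recombinase. Each library plasmid pairs an 11-nt target (CT core) with a bridge RNA whose target-binding loop (9-nt LTG + 4-nt RTG) is reprogrammed; the rest of the 177-nt WT IS621 bridge RNA scaffold is fixed. The plasmid is co-electroporated with a WT donor plasmid; recombinase is induced with 0.1 mM IPTG and recombinants are selected on kanamycin. Recombinant barcodes are sequenced, converted to CPM, averaged over two biological replicates and corrected by the unselected control CPM. Molecule = full bridge RNA written as DNA: LTG = specificity nt 1-9, RTG = reverse complement of specificity nt 8-11, in the WT scaffold.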
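Note: IS621 recombinase and bridge RNA in Escherichia coli cells.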

As to “AACGTGTCTTGGGTTCTAACCTGTTGCCT (site AACGTGTCTAG)”, the “recombinant barcode read abundance (log10)” value came to 2.57. The figure for “AACGTGTCTTGGGTTCTAACCTGTTGCCT (site AAGGTGTCTAG)” is 0.103. As for “AACGTGTCTTGGGTTCTAACCTGTTGCCT (site AATGTGTCTAG)”, the figure is 0.543; as for “AACTGAACTTGGGTTCTAACCTGTTGCCT (site AACTAAACTAG)”, 0.18; as for “AACTGAACTTGGGTTCTAACCTGTTGCCT (site AACTCAACTAG)”, 0.056. The figure for “AACTGAACTTGGGTTCTAACCTGTTGCCT (site AACTGAACTAG)” is 0.459; for “AACTGAACTTGGGTTCTAACCTGTTGCCT (site AACTTAACTAG)” it is 0.0689; for “AACTTCCCTTGGGTTCTAACCTGTTGCCT (site AACTTCACTAG)” it is 0.0364. In the case of “AACTTCCCTTGGGTTCTAACCTGTTGCCT (site AACTTCCCTAG)”, the “recombinant barcode read abundance (log10)” value stood at 0.315. For “AACTTCCCTTGGGTTCTAACCTGTTGCCT (site AACTTCGCTAG)”, the “recombinant barcode read abundance (log10)” value is 0.00996. With “AACTTCCCTTGGGTTCTAACCTGTTGCCT (site AACTTCTCTAG)”, the “recombinant barcode read abundance (log10)” value is 0.0342. The figure for “AACTTCTCTTGGGTTCTAACCTGTTGCCT (site AACTTCACTAG)” is 0.184; for “AACTTCTCTTGGGTTCTAACCTGTTGCCT (site AACTTCCCTAG)” it is 0.242; for “AACTTCTCTTGGGTTCTAACCTGTTGCCT (site AACTTCGCTAG)” it is 0.0209. On to “AACTTCTCTTGGGTTCTAACCTGTTGCCT (site AACTTCTCTAG)”, for which the “recombinant barcode read abundance (log10)” value worked out at 0.917.

As for “AAGAACACTTGGGTTCTAACCTGTTGCCT (site AAGAACACTAG)”, the “recombinant barcode read abundance (log10)” value came out at 2.06. The figure for “AAGAACACTTGGGTTCTAACCTGTTGCCT (site CAGAACACTAG)” is 0.46; for “AAGAACACTTGGGTTCTAACCTGTTGCCT (site GAGAACACTAG)” it is 0.233; for “AAGAACACTTGGGTTCTAACCTGTTGCCT (site TAGAACACTAG)” it is 1.19. The figure for “AAGAACTCTTGGGTTCTAACCTGTTGCCA (site AAGAACTCTTG)” is 1.11; for “AAGAACTCTTGGGTTCTAACCTGTTGCCA (site GGCGTGCCTAC)” it is 0.199.

As to “AAGACAGCTTGGGTTCTAACCTGTTGCCT (site AAGAAAGCTAG)”, the “recombinant barcode read abundance (log10)” value is 0.403. As for “AAGACAGCTTGGGTTCTAACCTGTTGCCT (site AAGACAGCTAG)”, the “recombinant barcode read abundance (log10)” value is 1.19. The figure for “AAGACAGCTTGGGTTCTAACCTGTTGCCT (site AAGAGAGCTAG)” is 0.0524; for “AAGACAGCTTGGGTTCTAACCTGTTGCCT (site AAGATAGCTAG)” it is 0.0189. As for “AAGACCTCTTGGGTTCTAACCTGTTGCTT (site AAGACCTCTAA)”, the figure is 1.76. On to “AAGACCTCTTGGGTTCTAACCTGTTGCTT (site AAGCCCTCTAA)”, for which the “recombinant barcode read abundance (log10)” value amounted to 0.139. With “AAGACCTCTTGGGTTCTAACCTGTTGCTT (site AAGGCCTCTAA)”, the “recombinant barcode read abundance (log10)” value worked out at 0.255. The figure for “AAGACCTCTTGGGTTCTAACCTGTTGCTT (site AAGTCCTCTAA)” is 0.134; for “AAGACTCCTTGGGTTCTAACCTGTTGCTT (site AACACTCCTAA)” it is 0.287; for “AAGACTCCTTGGGTTCTAACCTGTTGCTT (site AAGACTCCTAA)” it is 1.05. As for “AAGAGAGCTTGGGTTCTAACCTGTTGCCT (site AAGAAAGCTAG)”, the figure is 0.0985. With “AAGAGAGCTTGGGTTCTAACCTGTTGCCT (site AAGACAGCTAG)”, the “recombinant barcode read abundance (log10)” value came out at 0.154. As for “AAGAGAGCTTGGGTTCTAACCTGTTGCCT (site AAGAGAGCTAG)”, the figure is 1.91. As for “AAGAGAGCTTGGGTTCTAACCTGTTGCCT (site AAGATAGCTAG)”, the figure is 0.0307; as for “AAGATCACTTGGGTTCTAACCTGTTGCGG (site AAGATCACTCC)”, 2.36; as for “AAGATCACTTGGGTTCTAACCTGTTGCGG (site TTACATGCTAG)”, 0.026.

As for “AAGCAAACTTGGGTTCTAACCTGTTGCCT (site AAGCAAACTAG)”, the “recombinant barcode read abundance (log10)” value came out at 0.66.

Take “AAGCAAACTTGGGTTCTAACCTGTTGCCT (site AAGCCAACTAG)”: the “recombinant barcode read abundance (log10)” value worked out at 0.0799. As for “AAGCAAACTTGGGTTCTAACCTGTTGCCT (site AAGCGAACTAG)”, the figure is 0.22.

In the case of “AAGCAAACTTGGGTTCTAACCTGTTGCCT (site AAGCTAACTAG)”, the “recombinant barcode read abundance (log10)” value was determined as 0.218. In the case of “AAGCAATCTTGGGTTCTAACCTGTTGCCT (site AAGCAATCTAG)”, the “recombinant barcode read abundance (log10)” value turned out to be 0.927. The figure for “AAGCAATCTTGGGTTCTAACCTGTTGCCT (site AAGCACTCTAG)” is 0.159.

Turning to “AAGCAATCTTGGGTTCTAACCTGTTGCCT (site AAGCAGTCTAG)”, the “recombinant barcode read abundance (log10)” value was 0.0406. The figure for “AAGCAATCTTGGGTTCTAACCTGTTGCCT (site AAGCATTCTAG)” is 0.126. The figure for “AAGCCACCTTGGGTTCTAACCTGTTGCCT (site AAGCCACCTAG)” is 2.3; for “AAGCCACCTTGGGTTCTAACCTGTTGCCT (site CAGCCACCTAG)” it is 0.126. As to “AAGCCACCTTGGGTTCTAACCTGTTGCCT (site GAGCCACCTAG)”, the “recombinant barcode read abundance (log10)” value came to 0.392.

“AAGCCACCTTGGGTTCTAACCTGTTGCCT (site TAGCCACCTAG)”: the “recombinant barcode read abundance (log10)” value was determined as 1.31. For the sequence “AAGCGTCCTTGGGTTCTAACCTGTTGCCT (site AAGCGTACTAG)”, the “recombinant barcode read abundance (log10)” value was 0.384.

In the case of “AAGCGTCCTTGGGTTCTAACCTGTTGCCT (site AAGCGTCCTAG)”, the “recombinant barcode read abundance (log10)” value came out at 1.24. With “AAGCGTCCTTGGGTTCTAACCTGTTGCCT (site AAGCGTGCTAG)”, the “recombinant barcode read abundance (log10)” value turned out to be 0.583. Consider “AAGCGTCCTTGGGTTCTAACCTGTTGCCT (site AAGCGTTCTAG)”, for which the “recombinant barcode read abundance (log10)” value is 0.06. As for “AAGCTTGCTTGGGTTCTAACCTGTTGCCT (site AAGCTTGCTAG)”, the “recombinant barcode read abundance (log10)” value is 1.1. The figure for “AAGCTTGCTTGGGTTCTAACCTGTTGCCT (site CGATGGACTCA)” is 0.315; for “AAGGACGCTTGGGTTCTAACCTGTTGCCT (site AAGGACGCTAG)” it is 2.72; for “AAGGACGCTTGGGTTCTAACCTGTTGCCT (site AAGGCCGCTAG)” it is 0.241. The figure for “AAGGACGCTTGGGTTCTAACCTGTTGCCT (site AAGGGCGCTAG)” is 0.309.

For “AAGGACGCTTGGGTTCTAACCTGTTGCCT (site AAGGTCGCTAG)”, the “recombinant barcode read abundance (log10)” value came to 0.0217. With “AAGGGTTCTTGGGTTCTAACCTGTTGCCA (site AAGGGTTCTTG)”, the “recombinant barcode read abundance (log10)” value came out at 1.78.

As for “AAGGGTTCTTGGGTTCTAACCTGTTGCCA (site ACGGGTACTTG)”, the “recombinant barcode read abundance (log10)” value came out at 0.0285. “AAGGTTCCTTGGGTTCTAACCTGTTGCTA (site AAGGTCCCTTG)”: the “recombinant barcode read abundance (log10)” value was 0.0242.

For “AAGGTTCCTTGGGTTCTAACCTGTTGCTA (site AAGGTTCCTTA)”, the “recombinant barcode read abundance (log10)” value turned out to be 1.73. Regarding “AAGTACACTTGGGTTCTAACCTGTTGCTG (site AAGTACACTCA)”, the “recombinant barcode read abundance (log10)” value was 2.75.

Consider “AAGTACACTTGGGTTCTAACCTGTTGCTG (site CGACTGTCTAG)”, for which the “recombinant barcode read abundance (log10)” value stood at 0.0537.

On to “AAGTGCTCTTGGGTTCTAACCTGTTGCCT (site AAGTGCTCTAG)”, for which the “recombinant barcode read abundance (log10)” value was 2.34.

As to “AAGTGCTCTTGGGTTCTAACCTGTTGCCT (site ACGTGCTCTAG)”, the “recombinant barcode read abundance (log10)” value was determined as 0.129. As for “AAGTGCTCTTGGGTTCTAACCTGTTGCCT (site AGGTGCTCTAG)”, the figure is 0.124; as for “AAGTGCTCTTGGGTTCTAACCTGTTGCCT (site ATGTGCTCTAG)”, 0.127; as for “AAGTGTCCTTGGGTTCTAACCTGTTGCAT (site AAGTGTCCTAT)”, 1.73. The figure for “AAGTGTCCTTGGGTTCTAACCTGTTGCAT (site AAGTTTCCTAT)” is 0.0208; for “AAGTTTACTTGGGTTCTAACCTGTTGCTT (site AAGTTTACTAA)” it is 0.177; for “AAGTTTACTTGGGTTCTAACCTGTTGCTT (site AAGTTTACTAG)” it is 0.0137.
